Source: ChEMBL document CHEMBL1201862, “PubChem BioAssay data set” (2004)
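The compound was tested at five concentrations on cells cultured in 96-well plates, with a 48-hour exposure period. Here, GI50 denotes the concentration required for 50% inhibition of growth.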 The source made the active and inactive calls. Rule as the data show it: active = GI50 up to about 1.1 µM and inactive = higher.

Columns and labels:
Assay in all cases: growth of human tumour cells (NCI), 48 h
TK-10 = test system: TK-10
Malme-3M = test system: Malme-3M
OVCAR-8 = test system: OVCAR-8
COLO 205 = test system: COLO 205
U-251 = test system: U-251
NCI-H460 = test system: NCI-H460
ACHN = test system: ACHN
RXF 393 = test system: RXF 393
SNB-78 = test system: SNB-78
UACC-62 = test system: UACC-62
EKVX = test system: EKVX
IGROV-1 = test system: IGROV-1
SF-539 = test system: SF-539
SK-MEL-28 = test system: SK-MEL-28
SN12C = test system: SN12C
A549 = test system: A549
RXF 631 = test system: RXF 631
LOX IMVI = test system: LOX IMVI
786-0 = test system: 786-0
HOP-62 = test system: HOP-62
M14 = test system: M14
A498 = test system: A498
SF-295 = test system: SF-295
HT-29 = test system: HT-29
SK-OV-3 = test system: SK-OV-3
LXFL 529 = test system: LXFL 529
DMS-114 = test system: DMS-114
CAKI-1 = test system: CAKI-1
OVCAR-5 = test system: OVCAR-5
DMS-273 = test system: DMS-273
XF498 = test system: XF498
KM-20L2 = test system: KM-20L2
SW-620 = test system: SW-620
HCT-15 = test system: HCT-15
UACC-257 = test system: UACC-257
HL-60 = test system: HL-60
NCI-H23 = test system: NCI-H23
K562 = test system: K562
SF-268 = test system: SF-268
SK-MEL-2 = test system: SK-MEL-2
KM12 = test system: KM12
UO-31 = test system: UO-31
HCT-116 = test system: HCT-116
SR = test system: SR
OVCAR-3 = test system: OVCAR-3
HCC 2998 = test system: HCC 2998
DLD-1 = test system: DLD-1
HOP-92 = test system: HOP-92
M19-MEL = test system: M19-MEL
OVCAR-4 = test system: OVCAR-4
RPMI-8226 = test system: RPMI-8226
MOLT-4 = test system: MOLT-4
SK-MEL-5 = test system: SK-MEL-5
SNB-75 = test system: SNB-75
SNB-19 = test system: SNB-19
CCRF-CEM = test system: CCRF-CEM
NCI-H522 = test system: NCI-H522
NCI-H226 = test system: NCI-H226

Structure (SMILES): O=C1OCc2c1cc1ccc(O)c(OC3OC(CO)C(O)C(O)C3O)c1c2-c1ccc2c(c1)OCO2 (configuration not stated)
- GI50 (TK-10): > 100 µM (inactive)
- GI50 (Malme-3M): > 100 µM (inactive)
- GI50 (OVCAR-8): 94 µM (inactive)
- GI50 (COLO 205): > 100 µM (inactive)
- GI50 (U-251): > 100 µM (inactive)
- GI50 (NCI-H460): > 100 µM (inactive)
- GI50 (ACHN): 72.1 µM (inactive)
- GI50 (RXF 393): 59.4 µM (inactive)
- GI50 (SNB-78): 89.3 µM (inactive)
- GI50 (UACC-62): 76.9 µM (inactive)
- GI50 (EKVX): > 100 µM (inactive)
- GI50 (IGROV-1): > 100 µM (inactive)
- GI50 (SF-539): > 100 µM (inactive)
- GI50 (SK-MEL-28): 67.8 µM (inactive)
- GI50 (SN12C): 89.3 µM (inactive)
- GI50 (A549): > 100 µM (inactive)
- GI50 (RXF 631): > 100 µM (inactive)
- GI50 (LOX IMVI): 86.7 µM (inactive)
- GI50 (786-0): > 100 µM (inactive)
- GI50 (HOP-62): > 100 µM (inactive)
- GI50 (M14): 87.3 µM (inactive)
- GI50 (A498): > 100 µM (inactive)
- GI50 (SF-295): > 100 µM (inactive)
- GI50 (HT-29): 47.2 µM (inactive)
- GI50 (SK-OV-3): > 100 µM (inactive)
- GI50 (LXFL 529): 68.1 µM (inactive)
- GI50 (DMS-114): 47.5 µM (inactive)
- GI50 (CAKI-1): 87.3 µM (inactive)
- GI50 (OVCAR-5): > 100 µM (inactive)
- GI50 (DMS-273): 94.6 µM (inactive)
- GI50 (XF498): 62.7 µM (inactive)
- GI50 (KM-20L2): > 100 µM (inactive)
- GI50 (SW-620): > 100 µM (inactive)
- GI50 (HCT-15): 46.2 µM

Structure (SMILES): CCOC(=O)C1S(=O)(=O)OCCOS1(=O)=O
- GI50 (UACC-257): > 100 µM (inactive)
- GI50 (TK-10): > 100 µM (inactive)
- GI50 (HL-60): > 100 µM (inactive)
- GI50 (Malme-3M): > 100 µM (inactive)
- GI50 (NCI-H23): > 100 µM (inactive)
- GI50 (OVCAR-8): > 100 µM (inactive)
- GI50 (COLO 205): > 100 µM (inactive)
- GI50 (K562): > 100 µM (inactive)
- GI50 (SF-268): > 100 µM (inactive)
- GI50 (SK-MEL-2): > 100 µM (inactive)
- GI50 (KM12): > 100 µM (inactive)
- GI50 (UO-31): > 100 µM (inactive)
- GI50 (HCT-116): > 100 µM (inactive)
- GI50 (SR): > 100 µM (inactive)
- GI50 (SNB-78): > 100 µM (inactive)
- GI50 (UACC-62): > 100 µM (inactive)
- GI50 (OVCAR-3): > 100 µM (inactive)
- GI50 (EKVX): > 100 µM (inactive)
- GI50 (IGROV-1): > 100 µM (inactive)
- GI50 (HCC 2998): > 100 µM (inactive)
- GI50 (SF-539): > 100 µM (inactive)
- GI50 (SK-MEL-28): > 100 µM (inactive)
- GI50 (DLD-1): > 100 µM (inactive)
- GI50 (HOP-92): > 100 µM (inactive)
- GI50 (SN12C): > 100 µM (inactive)
- GI50 (A549): > 100 µM (inactive)
- GI50 (RXF 631): > 100 µM (inactive)
- GI50 (LOX IMVI): > 100 µM (inactive)
- GI50 (M19-MEL): > 100 µM (inactive)
- GI50 (786-0): > 100 µM (inactive)
- GI50 (HOP-62): > 100 µM (inactive)
- GI50 (OVCAR-4): > 100 µM (inactive)
- GI50 (M14): > 100 µM (inactive)
- GI50 (RPMI-8226): > 100 µM (inactive)
- GI50 (SF-295): > 100 µM (inactive)
- GI50 (MOLT-4): > 100 µM (inactive)
- GI50 (HT-29): > 100 µM (inactive)
- GI50 (SK-OV-3): > 100 µM (inactive)
- GI50 (LXFL 529): > 100 µM (inactive)
- GI50 (SK-MEL-5): > 100 µM (inactive)
- GI50 (CAKI-1): > 100 µM (inactive)
- GI50 (SNB-75): > 100 µM (inactive)
- GI50 (DMS-273): > 100 µM (inactive)
- GI50 (SNB-19): > 100 µM (inactive)
- GI50 (CCRF-CEM): > 100 µM (inactive)
- GI50 (XF498): > 100 µM (inactive)
- GI50 (SW-620): > 100 µM (inactive)
- GI50 (NCI-H522): > 100 µM (inactive)

Structure (SMILES): CC1=Nc2ccccc2C12C(c1ccccc1)C(c1ccccc1)C(=O)N1c3ccccc3CC12 (configuration not stated)
- GI50 (UACC-257): > 100 µM (inactive)
- GI50 (TK-10): > 100 µM (inactive)
- GI50 (HL-60): > 100 µM (inactive)
- GI50 (Malme-3M): > 100 µM (inactive)
- GI50 (NCI-H23): > 100 µM (inactive)
- GI50 (OVCAR-8): > 100 µM (inactive)
- GI50 (COLO 205): > 100 µM (inactive)
- GI50 (K562): > 100 µM (inactive)
- GI50 (U-251): > 100 µM (inactive)
- GI50 (NCI-H226): > 100 µM (inactive)
- GI50 (SK-MEL-2): > 100 µM (inactive)
- GI50 (KM12): > 100 µM (inactive)
- GI50 (NCI-H460): > 100 µM (inactive)
- GI50 (UO-31): > 100 µM (inactive)
- GI50 (ACHN): > 100 µM (inactive)
- GI50 (HCT-116): > 100 µM (inactive)
- GI50 (SR): > 100 µM (inactive)
- GI50 (RXF 393): > 100 µM (inactive)
- GI50 (SNB-78): > 100 µM (inactive)
- GI50 (UACC-62): > 100 µM (inactive)
- GI50 (OVCAR-3): > 100 µM (inactive)
- GI50 (EKVX): > 100 µM (inactive)
- GI50 (IGROV-1): > 100 µM (inactive)
- GI50 (HCC 2998): > 100 µM (inactive)
- GI50 (SF-539): > 100 µM (inactive)
- GI50 (SK-MEL-28): > 100 µM (inactive)
- GI50 (DLD-1): > 100 µM (inactive)
- GI50 (HOP-92): > 100 µM (inactive)
- GI50 (SN12C): > 100 µM (inactive)
- GI50 (A549): > 100 µM (inactive)
- GI50 (RXF 631): > 100 µM (inactive)
- GI50 (LOX IMVI): > 100 µM (inactive)
- GI50 (786-0): > 100 µM (inactive)
- GI50 (HOP-62): > 100 µM (inactive)
- GI50 (OVCAR-4): 19.9 µM (inactive)
- GI50 (M14): > 100 µM (inactive)
- GI50 (A498): > 100 µM (inactive)
- GI50 (RPMI-8226): > 100 µM (inactive)
- GI50 (SF-295): > 100 µM (inactive)
- GI50 (MOLT-4): > 100 µM (inactive)
- GI50 (HT-29): > 100 µM (inactive)
- GI50 (SK-OV-3): > 100 µM (inactive)
- GI50 (LXFL 529): > 100 µM (inactive)
- GI50 (SK-MEL-5): > 100 µM (inactive)
- GI50 (DMS-114): > 100 µM (inactive)
- GI50 (CAKI-1): > 100 µM (inactive)
- GI50 (OVCAR-5): > 100 µM (inactive)
- GI50 (SNB-75): 73.1 µM (inactive)
- GI50 (DMS-273): > 100 µM (inactive)
- GI50 (SNB-19): > 100 µM (inactive)
- GI50 (XF498): 11.9 µM (inactive)
- GI50 (KM-20L2): > 100 µM (inactive)
- GI50 (SW-620): > 100 µM (inactive)
- GI50 (NCI-H522): > 100 µM (inactive)
- GI50 (HCT-15): > 100 µM
